Laboratory results as given in article PMC5333395, “Assessing histone demethylase inhibitors in cells: lessons learned” (Epigenetics & Chromatin, 2017).

What was measured:
[1] = molecular target: KDM5B (Homo sapiens, UniProt Q9UGL1); design: method as in PMID 26741168; conditions: AlphaScreen; in vitro biochemical profiling previously reported; cited from earlier work
[2] = molecular target: T1, KDM3A (Homo sapiens, UniProt Q9Y4C1); experiment: High-content immunofluorescence (IF) assay, overexpressed full-length FLAG-tagged KDM in HeLa cells; type: cell-based; conditions: HeLa cells overexpressing WT KDM3A, H3K9me2 mark, 24 h; read-out: KDM3A, in cells, EC50 by IF assay (head: IC50)
T1 sequence (Q9Y4C1 1-1321): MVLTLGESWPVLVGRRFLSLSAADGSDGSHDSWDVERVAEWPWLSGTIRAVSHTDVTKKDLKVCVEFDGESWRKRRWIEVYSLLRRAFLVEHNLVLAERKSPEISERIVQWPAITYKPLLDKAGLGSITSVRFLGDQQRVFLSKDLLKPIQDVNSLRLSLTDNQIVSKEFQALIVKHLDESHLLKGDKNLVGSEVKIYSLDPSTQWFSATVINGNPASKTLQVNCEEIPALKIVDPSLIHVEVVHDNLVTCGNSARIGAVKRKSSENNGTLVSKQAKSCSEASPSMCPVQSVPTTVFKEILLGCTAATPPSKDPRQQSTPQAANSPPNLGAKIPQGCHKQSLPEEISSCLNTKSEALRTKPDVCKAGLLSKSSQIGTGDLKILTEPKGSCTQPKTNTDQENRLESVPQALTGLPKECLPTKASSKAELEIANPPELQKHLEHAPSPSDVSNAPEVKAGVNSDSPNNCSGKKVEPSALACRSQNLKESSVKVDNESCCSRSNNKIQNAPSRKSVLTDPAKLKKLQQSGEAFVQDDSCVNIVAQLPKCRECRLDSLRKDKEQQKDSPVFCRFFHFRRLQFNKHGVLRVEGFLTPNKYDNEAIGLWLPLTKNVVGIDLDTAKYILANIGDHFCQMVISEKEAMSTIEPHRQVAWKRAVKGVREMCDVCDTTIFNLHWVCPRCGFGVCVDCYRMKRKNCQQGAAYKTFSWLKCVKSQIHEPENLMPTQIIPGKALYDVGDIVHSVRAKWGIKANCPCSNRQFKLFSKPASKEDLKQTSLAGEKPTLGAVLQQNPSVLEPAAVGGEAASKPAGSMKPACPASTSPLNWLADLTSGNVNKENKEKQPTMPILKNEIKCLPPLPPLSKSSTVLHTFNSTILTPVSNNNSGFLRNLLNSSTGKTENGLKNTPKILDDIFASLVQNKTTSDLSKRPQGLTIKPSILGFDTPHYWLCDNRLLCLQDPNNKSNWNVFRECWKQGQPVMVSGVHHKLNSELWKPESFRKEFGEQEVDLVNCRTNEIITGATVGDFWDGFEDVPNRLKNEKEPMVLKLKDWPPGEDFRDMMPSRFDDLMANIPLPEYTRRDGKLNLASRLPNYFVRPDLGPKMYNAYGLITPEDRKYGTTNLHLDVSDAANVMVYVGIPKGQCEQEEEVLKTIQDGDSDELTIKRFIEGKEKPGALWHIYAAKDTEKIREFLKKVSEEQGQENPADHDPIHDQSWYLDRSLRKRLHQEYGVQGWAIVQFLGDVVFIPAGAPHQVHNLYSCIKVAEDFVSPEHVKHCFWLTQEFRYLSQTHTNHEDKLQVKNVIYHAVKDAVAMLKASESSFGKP

Chain of KDM5B (Q9UGL1 whole entry): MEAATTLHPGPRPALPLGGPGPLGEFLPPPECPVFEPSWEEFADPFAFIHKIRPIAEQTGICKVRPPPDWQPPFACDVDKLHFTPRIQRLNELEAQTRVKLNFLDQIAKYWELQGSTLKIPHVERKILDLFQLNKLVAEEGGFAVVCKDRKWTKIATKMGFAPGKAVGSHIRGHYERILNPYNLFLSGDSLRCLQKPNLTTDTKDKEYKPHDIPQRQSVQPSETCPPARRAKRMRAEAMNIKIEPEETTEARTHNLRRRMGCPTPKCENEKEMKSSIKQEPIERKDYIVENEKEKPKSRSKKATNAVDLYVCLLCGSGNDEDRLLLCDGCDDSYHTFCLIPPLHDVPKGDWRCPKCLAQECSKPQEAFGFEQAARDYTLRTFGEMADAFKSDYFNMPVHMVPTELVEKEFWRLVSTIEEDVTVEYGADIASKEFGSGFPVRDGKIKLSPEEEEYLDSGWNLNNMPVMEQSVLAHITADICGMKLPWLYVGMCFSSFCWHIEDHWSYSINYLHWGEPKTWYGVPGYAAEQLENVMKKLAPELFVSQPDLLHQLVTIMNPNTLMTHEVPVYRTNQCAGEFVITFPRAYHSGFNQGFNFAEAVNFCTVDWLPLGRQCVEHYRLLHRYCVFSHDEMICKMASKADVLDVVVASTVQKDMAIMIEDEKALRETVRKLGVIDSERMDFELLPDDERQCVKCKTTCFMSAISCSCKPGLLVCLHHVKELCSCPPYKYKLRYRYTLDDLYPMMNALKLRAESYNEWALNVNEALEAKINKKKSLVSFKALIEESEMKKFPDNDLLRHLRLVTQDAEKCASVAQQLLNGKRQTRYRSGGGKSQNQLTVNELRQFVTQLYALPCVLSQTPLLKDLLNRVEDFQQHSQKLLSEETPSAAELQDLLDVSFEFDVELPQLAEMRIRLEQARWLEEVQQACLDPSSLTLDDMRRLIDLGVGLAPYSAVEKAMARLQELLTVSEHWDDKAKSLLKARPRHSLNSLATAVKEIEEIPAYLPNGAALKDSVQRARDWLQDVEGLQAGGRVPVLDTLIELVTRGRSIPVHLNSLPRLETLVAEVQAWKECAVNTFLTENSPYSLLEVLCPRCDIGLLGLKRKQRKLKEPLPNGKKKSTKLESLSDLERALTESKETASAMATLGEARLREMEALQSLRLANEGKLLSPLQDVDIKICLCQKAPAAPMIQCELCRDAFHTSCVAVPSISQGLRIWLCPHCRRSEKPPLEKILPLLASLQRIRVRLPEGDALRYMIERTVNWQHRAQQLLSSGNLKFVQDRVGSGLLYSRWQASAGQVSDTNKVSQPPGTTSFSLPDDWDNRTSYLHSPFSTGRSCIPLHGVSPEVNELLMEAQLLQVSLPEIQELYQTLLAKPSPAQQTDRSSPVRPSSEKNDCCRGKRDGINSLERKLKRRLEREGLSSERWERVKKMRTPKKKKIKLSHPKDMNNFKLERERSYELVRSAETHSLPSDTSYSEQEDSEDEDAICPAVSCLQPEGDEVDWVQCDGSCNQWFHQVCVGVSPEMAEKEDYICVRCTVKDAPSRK

| Structure (SMILES) | IC50 [1] [nM] | EC50 [2] [nM] |
| --- | --- | --- |
| Clc1ccc(N/N=C(\c2ccccc2)c2ccccn2)nc1 [JIB-04 E] | 561 |  |
| CCN(CCN(C)C)C(=O)CNCc1cncc(C(N)=O)c1 [KDOAM-32] |  | > 100000 |
